Measured values from patent US20150126364A1, “1,3-DIARYL-SUBSTITUTED HETEROCYCLIC PESTICIDES” (E I DU PONT DE NEMOURS AND COMPANY, priority 2012, published 2015).

Test system: potato leafhopper (Empoasca fabae)
Test: Test D: control of potato leafhopper on Soleil bean plant, contact and/or systemic
Format: in vivo
Details: 144 h, 6 days, very good to excellent control, read-out: control efficacy: mortality; for mortality at 250 ppm: sprayed at 250 ppm; for mortality at 50 ppm: sprayed at 50 ppm
Protocol: Test compounds were formulated using a solution containing 10% acetone, 90% water and 300 ppm X-77® Spreader Lo-Foam Formula non-ionic surfactant containing alkylarylpolyoxyethylene, free fatty acids, glycols and isopropanol (Loveland Industries, Inc. Greeley, Colo., USA). The formulated compounds were applied in 1 mL of liquid through a SUJ2 atomizer nozzle with ⅛ JJ custom body (Spraying Systems Co., Wheaton, Ill., USA) positioned 1.27 cm (0.5 inches) above the top of each test unit. Test compounds were sprayed at 250 ppm and/or 50 ppm, and replicated three times. After spraying of the formulated test compound, each test unit was allowed to dry for 1 h and then a black, screened cap was placed on top. The test units were held for 6 days in a growth chamber at 25° C. and 70% relative humidity. Plant feeding damage was then visually assessed based on foliage consumed.
For evaluating control of potato leafhopper (Empoasca fabae) through contact and/or systemic means, the test unit consisted of a small open container with a 5-6-day-old Soleil bean plant (primary leaves emerged) inside. White sand was added to the top of the soil and one of the primary leaves was excised prior to application.
Test compounds were formulated and sprayed at 250 ppm and/or 50 ppm, and the tests were replicated three times as described for Test A. After spraying, the test units were allowed to dry for 1 h before they were post-infested with 5 potato leafhoppers (18-21-day-old adults). A black, screened cap was placed on the top of each test unit, and the test units were held for 6 days in a growth chamber at 24° C. and 70% relative humidity. Each test unit was then visually assessed for insect mortality.

Row | SMILES | mortality at 250 ppm | mortality at 50 ppm
1 | Cn1c(-c2cccc(C(F)(F)F)c2)nc(CN2CCOCC2)c1-c1ccc(F)cc1F (single isomer, unassigned) [Compound 49, 4-[[5-(2,4-difluorophenyl)-1-methyl-2-[3-(trifluoromethyl)phenyl]-1H-imidazol-4-yl]methyl]morpholine] | ≥ 80% | –
2 | COC(=O)C1CCN(Cc2cc(-c3cccc(C(F)(F)F)c3)nn2-c2ccc(F)cc2)CC1 [Compound 6, methyl 1-[[1-(4-fluorophenyl)-3-[3-(trifluoromethyl)phenyl]-1H-pyrazol-5-yl]methyl]-4-piperidinecarboxylate] | ≥ 80% | ≥ 80%
3 | Fc1ccc(-c2[nH]c(-c3cccc(C(F)(F)F)c3)nc2CN2CCOCC2)c(F)c1 [Compound 44, 4-[[5-(2,4-difluorophenyl)-2-[3-(trifluoromethyl)phenyl]-1H-imidazol-4-yl]methyl]morpholine] | ≥ 80% | ≥ 80%
4 | CC(=O)NC1CCN(Cc2oc(-c3cccc(C(F)(F)F)c3)nc2-c2ccc(F)cc2)CC1 [Compound 65, N-[1-[[4-(4-fluorophenyl)-2-[3-(trifluoromethyl)phenyl]-5-oxazolyl]methyl]-4-piperidinyl]acetamide] | ≥ 80% | ≥ 80%
5 | N#CC1CCN(Cc2c(-c3ccc(F)cc3F)nc3n2CCc2ccc(Cl)cc2-3)CC1 [Compound 151] | ≥ 80% | –
6 | N#CC1CCN(Cc2c(-c3ccc(F)cc3F)nc3n2CCc2cc(Cl)ccc2-3)CC1 [Compound 155] | ≥ 80% | –
